The test system of this data set is Hepatitis B Virus (HBV). The experiment in a line: Serum HBsAg levels in pHBV model mice (ELISA). Format: in vivo. Details: key to Average HBsAg levels normalized to pre-treatment (day −1) and PBS control / Average HBsAg levels normalized to pre-treatment and PBS control: fraction of pre-treatment level, relative to PBS control mean. Conditions: for Average HBsAg levels normalized to pre-treatment (day −1) and PBS control: single s.c. injection day 1, Example 7; for Average HBsAg normalized to pre-treatment and PBS control: single s.c. injection on day 1; for Average HBsAg levels normalized to pre-treatment and PBS control (Group A used as control): 3.0 mg/kg, s.c. injection on day 1 and day 22, Example 10. The source says:
Six to eight-week-old female NOD.CB17-Prkdscid/NcrCrl (NOD-SCID) mice were transiently transfected in vivo with MC-HBV1.3 by hydrodynamic tail vein injection (Yang P L et al. “Hydrodynamic injection of viral DNA: a mouse model of acute hepatitis B virus infection,” PNAS USA 2002 Vol. 99: p. 13825-13830), administered 30 to 45 days prior to administration of an HBV RNAi agent or control. MC-HBV1.3 is a plasmid-derived minicircle that contains the same terminally redundant human hepatitis B virus sequence HBV1.3 as in plasmid pHBV1.3 and in the HBV1.3.32 transgenic mice (GenBank accession #V01460) (Guidotti L G et al., “High-level hepatitis B virus replication in transgenic mice,” J Virol 1995 Vol. 69, p 6158-6169.). 5 or 10 μg MC-HBV1.3 in Ringer's Solution in a total volume of 10% of the animal's body weight was injected into mice via tail vein to create pHBV model of chronic HBV infection. The solution was injected through a 27-gauge needle in 5-7 seconds as previously described (Zhang G et al., “High levels of foreign gene expression in hepatocytes after tail vein injection of naked plasmid DNA.” Human Gene Therapy 1999 Vol. 10, p 1735-1737.). At pre-dose (either day 1 pre-dose, day −1, or day −2), Hepatitis B surface antigen (HBsAg) HBsAg expression levels in serum were measured by ELISA and the mice were grouped according to average HBsAg expression levels.
HBV expression levels were normalized to pre-administration expression levels and to control mice injected with phosphate buffered saline (“PBS”).
Mice were anesthetized with 2-3% isoflurane and blood samples were collected from the submandibular area into serum separation tubes (Sarstedt AG & Co., Nümbrecht, Germany). Blood was allowed to coagulate at ambient temperature for 20 min. The tubes were centrifuged at 8,000×g for 3 min to separate the serum and stored at 4° C.
Serum was collected and diluted 10 to 8000-fold in PBS containing 5% nonfat dry milk. […] HBsAg levels were determined with a GS HBsAg EIA 3.0 kit (Bio-Rad Laboratories, Inc., Redmond, Wash.) as described by the manufacturer. Recombinant HBsAg protein, ayw subtype, also diluted in nonfat milk in PBS, was used as a primary standard (Aldevron).
HBsAg expression for each animal was normalized to the control group of mice injected with PBS in order to account for the non-treatment related decline in expression of MC-HBV1.3. First, the HBsAg level for each animal at a time point was divided by the pre-treatment level of expression in that animal in order to determine the ratio of expression “normalized to pre-treatment”. Expression at a specific time point was then normalized to the control group by dividing the “normalized to pre-treatment” ratio for an individual animal by the average “normalized to pre-treatment” ratio of all mice in the normal PBS control group.

In the case of “AD04776: HBV RNAi agent duplex AM05850-AS/AM06150-SS (antisense UACCAAUUUAUGCCUACAGCC; sense GGCUGUAGGCAUAAAUUGGUA; chemistry not fully specified)”, the “Average HBsAg levels normalized to pre-treatment (day −1) and PBS control” value is, setting by setting: (Day 8, 1.0 mg/kg) 0.279 ± 0.057; (Day 8, 2.0 mg/kg) 0.224 ± 0.018; (Day 8, 4.0 mg/kg) 0.117 ± 0.069; (Day 15, 1.0 mg/kg) 0.245 ± 0.032; (Day 15, 2.0 mg/kg) 0.161 ± 0.009; (Day 15, 4.0 mg/kg) 0.085 ± 0.039. The “Average HBsAg levels normalized to pre-treatment (day −1) and PBS control” value runs as follows: (Day 22, 1.0 mg/kg) 0.374 ± 0.121; (Day 22, 2.0 mg/kg) 0.310 ± 0.016; (Day 22, 4.0 mg/kg) 0.148 ± 0.045; (Day 29, 1.0 mg/kg) 0.304; (Day 29, 2.0 mg/kg) 0.482; (Day 29, 4.0 mg/kg) 0.198. Besides, the “Average HBsAg normalized to pre-treatment and PBS control” value was determined as 0.339 ± 0.076 (Day 8, 2.0 mg/kg, Example 15); 0.414 ± 0.126 (Day 15, 2.0 mg/kg, Example 15); 0.385 ± 0.067 (Day 22, 2.0 mg/kg, Example 15); 0.450 ± 0.075 (Day 29, 2.0 mg/kg, Example 15); 0.617 ± 0.116 (Day 36, 2.0 mg/kg, Example 15); 0.643 ± 0.154 (Day 43, 2.0 mg/kg, Example 15). Besides, the “Average HBsAg normalized to pre-treatment and PBS control” value (Day 50, 2.0 mg/kg, Example 15) was 0.665 ± 0.199. Besides, the “Average HBsAg levels normalized to pre-treatment and PBS control (Group A used as control)” value is listed as 0.197 ± 0.081 (Day 8); 0.308 ± 0.138 (Day 15); 0.476 ± 0.156 (Day 22); 0.246 ± 0.081 (Day 29); 0.244 ± 0.097 (Day 36); 0.179 ± 0.061 (Day 43). Moreover, where the note is “Example 15, administered alone or in combination with AD04872, across each of the time points measured”, the “knockdown of HBsAg compared to PBS control” value is given as “significant knockdown of HBsAg”.
For “AD04982: HBV RNAi agent duplex AM06464-AS/AM06150-SS (antisense UACCAAUUUAUGCCUACAGCC; sense GGCUGUAGGCAUAAAUUGGUA; chemistry not fully specified)”, the “Average HBsAg levels normalized to pre-treatment (day −1) and PBS control” value by setting is: (Day 8, 1.0 mg/kg) 0.519 ± 0.058; (Day 8, 2.0 mg/kg) 0.342 ± 0.062; (Day 15, 1.0 mg/kg) 0.375 ± 0.012; (Day 15, 2.0 mg/kg) 0.255 ± 0.046; (Day 22, 1.0 mg/kg) 0.422 ± 0.046; (Day 22, 2.0 mg/kg) 0.272 ± 0.122. Besides, the “Average HBsAg levels normalized to pre-treatment (day −1) and PBS control” value (Day 29, 1.0 mg/kg) came to 0.525; the “Average HBsAg levels normalized to pre-treatment (day −1) and PBS control” value (Day 29, 2.0 mg/kg) came out at 0.314.
